Measurements: ChEMBL document CHEMBL1201862, “PubChem BioAssay data set” (2004)
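Exposure lasted 48 hours, with cells grown in 96-well plates and compounds tested at five concentrations. GI50 marks 50% less growth.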 The source made the active and inactive calls. Cut-off read from the data, not from the text of the source: active = GI50 up to about 1.1 µM and inactive = higher. Where a SMILES comes first, the peptide text is derived from it.

Key:
Assay in all cases: NCI anticancer screen, dose series, 48 h
KM12 = test system: KM12
Malme-3M = test system: Malme-3M
A549 = test system: A549
SK-MEL-28 = test system: SK-MEL-28
SR = test system: SR
UO-31 = test system: UO-31
CAKI-1 = test system: CAKI-1
DU-145 = test system: DU-145
NCI-H226 = test system: NCI-H226
UACC-62 = test system: UACC-62
OVCAR-4 = test system: OVCAR-4
SN12C = test system: SN12C
CCRF-CEM = test system: CCRF-CEM
MDA-MB-435 = test system: MDA-MB-435
SNB-75 = test system: SNB-75
MDA-N = test system: MDA-N
HOP-92 = test system: HOP-92
SF-268 = test system: SF-268
MCF7 = test system: MCF7
OVCAR-3 = test system: OVCAR-3

Structure (SMILES)	GI50 (KM12)	GI50 (Malme-3M)	GI50 (A549)	GI50 (SK-MEL-28)	GI50 (SR)	GI50 (UO-31)	GI50 (CAKI-1)	GI50 (DU-145)	GI50 (NCI-H226)	GI50 (UACC-62)	GI50 (OVCAR-4)	GI50 (SN12C)	GI50 (CCRF-CEM)	GI50 (MDA-MB-435)	GI50 (SNB-75)	GI50 (MDA-N)	GI50 (HOP-92)	GI50 (SF-268)	GI50 (MCF7)	GI50 (OVCAR-3)
Cc1ccc(S(=O)(=O)NC(=O)C2=C(c3ccccc3)[N-]N(C)c3nc4cccc[n+]4nc32)cc1	> 100 µM (inactive)	99.3 µM (inactive)	> 100 µM (inactive)	> 100 µM (inactive)	> 100 µM (inactive)	> 100 µM (inactive)	> 100 µM (inactive)	> 100 µM (inactive)	> 100 µM (inactive)	> 100 µM (inactive)	> 100 µM (inactive)	> 100 µM (inactive)	> 100 µM (inactive)	> 100 µM (inactive)	57.4 µM (inactive)	> 100 µM (inactive)	12.6 µM (inactive)	> 100 µM (inactive)	49.9 µM (inactive)	
CC(=O)C1(O)Cc2c(O)c3c(c(O)c2C(OC2CC(N)C(O)C(C)O2)C1)C(=O)c1ccccc1C3=O (configuration not stated)	0.0498 µM (active)	0.01 µM (active)	0.0248 µM (active)		0.0292 µM (active)	0.042 µM (active)	0.00836 µM (active)	0.0221 µM (active)	0.0163 µM (active)	0.0303 µM (active)	0.327 µM (active)	0.0207 µM (active)	0.01 µM (active)	0.12 µM (active)	0.0132 µM (active)	0.112 µM (active)	0.187 µM (active)	0.0215 µM (active)	0.00458 µM (active)	0.178 µM (active)
COc1ccc(Nc2nc3ccccc3nc2C(=O)O)cc1	26.2 µM (inactive)	> 100 µM (inactive)	> 100 µM (inactive)	68.4 µM (inactive)	48.6 µM (inactive)	40 µM (inactive)	46.6 µM (inactive)	76.7 µM (inactive)		> 100 µM (inactive)	> 100 µM (inactive)	80.2 µM (inactive)	44 µM (inactive)	> 100 µM (inactive)	59.7 µM (inactive)	92.9 µM (inactive)	> 100 µM (inactive)	61.1 µM (inactive)	> 100 µM (inactive)	65.9 µM (inactive)
Cc1nc(OCc2ccccc2)c2ncn(CCO)c2n1	> 100 µM (inactive)		> 100 µM (inactive)	> 100 µM (inactive)	> 100 µM (inactive)	> 100 µM (inactive)	> 100 µM (inactive)	> 100 µM (inactive)	> 100 µM (inactive)	> 100 µM (inactive)	> 100 µM (inactive)	> 100 µM (inactive)	> 100 µM (inactive)	> 100 µM (inactive)		> 100 µM (inactive)	51.8 µM (inactive)	> 100 µM (inactive)	> 100 µM (inactive)	> 100 µM (inactive)
CC(=O)OC1/C(=C/c2ccc([N+](=O)[O-])cc2)C[C@H]2[C@@H]3CC=C4C[C@@H](OC(C)=O)CC[C@]4(C)[C@H]3CC[C@]12C (some centres not stated)	> 100 µM (inactive)	> 100 µM (inactive)	> 100 µM (inactive)	> 100 µM (inactive)	5.13 µM (inactive)	> 100 µM (inactive)	> 48.9 µM (inactive)	> 100 µM (inactive)	4.63 µM (inactive)	> 100 µM (inactive)	> 96.4 µM (inactive)	> 100 µM (inactive)	> 40.6 µM (inactive)	> 100 µM (inactive)		> 100 µM (inactive)	34.4 µM (inactive)	51.4 µM (inactive)	> 100 µM (inactive)	> 100 µM (inactive)
FC(F)(F)c1ccc2c(c1)nc(Cc1ccc(Cl)c(Cl)c1)n2CC1CCCN2CCCCC12 (configuration not stated)	24.4 µM (inactive)	13.6 µM (inactive)	18.1 µM (inactive)	21.1 µM (inactive)	23.2 µM (inactive)	0.169 µM (active)	29.7 µM (inactive)	50.6 µM (inactive)	26.5 µM (inactive)	15.9 µM (inactive)	74.5 µM (inactive)	20.3 µM (inactive)		30.4 µM (inactive)	28.6 µM (inactive)	18.2 µM (inactive)	22.9 µM (inactive)	27.8 µM (inactive)	17.5 µM (inactive)	20 µM (inactive)
CCC(C)C(NC(=O)C1CCCN1C(=O)C(CC(C)C)NC(=O)C(CC(C)C)NC(=O)C(N)CC(C)C)C(=O)NC(C(=O)NCC(=O)NC(CC(N)=O)C(=O)NC(CC(C)C)C(=O)NC(CC(C)C)C(=O)NC(CC(C)C)C(N)=O)C(C)C (configuration not stated) (H-LLLPIVGNLLL-NH2; configuration not given here)	> 50 µM (inactive)	> 50 µM (inactive)	> 50 µM (inactive)	> 50 µM (inactive)	> 50 µM (inactive)	> 50 µM (inactive)	> 50 µM (inactive)	> 50 µM (inactive)	> 50 µM (inactive)	> 50 µM (inactive)	> 50 µM (inactive)	> 50 µM (inactive)	> 50 µM (inactive)	> 50 µM (inactive)		> 50 µM (inactive)	> 50 µM (inactive)	> 50 µM (inactive)	> 50 µM (inactive)	> 50 µM (inactive)
